Assay results published in paper PMC12518996 (Frontiers in Pharmacology, 2025).

Tests used:
CYP3A4 = assay: Inhibition of CYP3A4 in CD1 mouse hepatocytes (midazolam probe); conditions: both, hepatocytes
CYP2A6 = molecular target: T1, CYP2A6 (Homo sapiens, UniProt P11509); assay: Inhibition of CYP2A6 in human hepatocytes (coumarin probe)
T1 sequence (P11509 1-494): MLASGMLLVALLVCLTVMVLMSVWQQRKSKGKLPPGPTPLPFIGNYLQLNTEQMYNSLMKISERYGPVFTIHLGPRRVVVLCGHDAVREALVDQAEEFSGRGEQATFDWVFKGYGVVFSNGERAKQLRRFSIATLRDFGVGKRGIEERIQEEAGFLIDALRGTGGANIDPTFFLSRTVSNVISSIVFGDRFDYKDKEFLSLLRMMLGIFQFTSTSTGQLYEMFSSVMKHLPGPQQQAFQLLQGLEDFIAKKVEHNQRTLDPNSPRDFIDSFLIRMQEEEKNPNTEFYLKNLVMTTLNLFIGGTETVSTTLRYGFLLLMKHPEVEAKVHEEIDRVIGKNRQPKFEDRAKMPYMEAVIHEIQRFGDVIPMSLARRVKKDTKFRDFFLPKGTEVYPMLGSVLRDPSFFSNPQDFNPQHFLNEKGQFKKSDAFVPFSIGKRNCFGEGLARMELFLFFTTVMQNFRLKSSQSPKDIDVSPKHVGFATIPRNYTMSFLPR

For `Clc1cccc(N2CCNCC2)c1` [mCPP, m-chlorophenylpiperazine], the IC50 (CYP3A4) was […] and the IC50 (CYP2A6) was 29.8 µM.
